# Tests used:
# iNOS transgenic mice [1] = experiment: Test using mice developing diabetic nephropathy (iNOS transgenic mice); type: in vivo, mouse; settings: 6 mg/kg/day oral
# Excerpt: iNOS transgenic mice (Takamura T. et al., J Biol Chem. 1998; 273: 2493-2496; received from Emeritus Professor Hiroshi Okamoto, Tohoku University) were used as model mice. According to the literature of Takamura et al., breeding in which 4-week-old model mice (experimental group: n=8, control group: n=6) and a wild type group (n=8), which is non-transgenic mice born simultaneously with the model mice by mating iNOS transgenic mice and wild type (CD1 (ICR)) mice, were fed with high protein and high calorie diets was performed for 13 weeks. Compound 12 (D-532) was further orally administered to the experimental group in 6 mg/kg/day. As to the groups, the body weights were measured every day, and the blood sugar levels, the albumin in urine, and the creatinine in urine were measured in accordance with the usual method every 3 weeks. The groups were sacrificed after the breeding, the serum creatinine in the blood collected from the abdominal vena cava at the time of dissection was measured, and the gene expression in the kidneys collected at the time of dissection was analyzed. The kidney tissues were stained with HE and PAS and observed.
# Further, the […] tissue section images were subjected to ImageJ (http://imagej.nih.gov/ij/) and measured according to the operation manual attached to ImageJ. When each glomerulus area (each group, n=100) and an area obtained by excluding regions of no interest such as vascular lumens and nuclei from the each glomerulus area were found, and the ratio therebetween, namely the PAS-positive area ratio in glomeruli, was found, the ratio increased in the model mice, and the improvement was meanwhile confirmed in the administered group.
# iNOS transgenic mice [2] = experiment: Observation of mouse kidney tissues by transmission electron microscope (iNOS mice); type: in vivo; settings: iNOS mice of Test Example 3, transmission electron microscope; FIG. 16C
# Experimental: The kidneys of model mice in the administered group and the non-administered group, and a mouse in the wild type group in Test Example 3 were placed in a prefixing solution containing 2% PFA (FUJIFILM Wako Pure Chemical Corporation; 163-20145)/2.5% glutaraldehyde (TAAB Laboratories Equipment Ltd.; G017/1)/0.1 M cacodylate buffer solution (FUJIFILM Wako Pure Chemical Corporation; 036-18175) and treated at room temperature for 2 hours. The prefixed kidneys were washed with 0.1 M cacodylate buffer solution (containing 8% sucrose (FUJIFILM Wako Pure Chemical Corporation: 196-00015)) on ice for 15 minutes×4 times and treated with postfixing solution containing 1% osmium tetroxide (FUJIFILM Wako Pure Chemical Corporation; 154-01014) on ice for 90 minutes. The postfixed kidneys were washed with ultrapure water for 15 minutes×3 times, placed in aqueous 50, 60, 70, 80, 90, and 95% ethanol solutions each for 10 minutes×1 time, further in 100% ethanol for 20 minutes×3 times, and subjected to ethanol dehydration. […]
# ChREBP [3] = experiment: ChREBP target gene expression analysis in the kidney by quantitative PCR (iNOS mice); type: in vivo, mouse; settings: iNOS mice of Test Example 3, quantitative PCR
# Experimental: (§1) In the mice used in Test Example 3, the expression variations of ChREBPβ and the TXNIP genes, which are target genes of ChREBP in the kidney, were analyzed by quantitative PCR in the method of the previous report (Genes to Cells 19 (2013) 52-65). The following primer set was used for the amplification of ChREBPβ.
# A primer set used for the amplification of the TXNIP gene is as mentioned above.
# ChREBP [4] = experiment: ChREBP target gene expression analysis in the kidney by quantitative PCR (db/db mice); type: in vivo, mouse; settings: db/db mice of Test Example 7, quantitative PCR
# Experimental: as §1
# In the mice used in Test Example 7, ChREBP target gene expression analysis was performed by the same method as in Test Example 4. FIG. 22 and FIG. 23 show the results.
# db/db mice = experiment: Relationship between blood sugar level and amount of albumin excreted in urine (ACR), regression lines, db/db mice; type: in vivo, mouse; settings: experimental vs control group, least squares regression, FIG. 25
# Excerpt: As to the blood sugar levels and the amounts of albumin excreted in urine (ACR) of the experimental group and the control group (non-administered group of db/db mice) in Test Example 7, a scatter diagram was created using SPSS, which is statistical analysis software, so that the abscissa axis is the blood sugar level, and the ordinate axis is the ACR, and regression lines (linear approximation by the least squares method) were found.
structure (smiles),measurement,setting,value
"c1ccc(COC[C@H]2CO[C@@](Cn3nnc4ccccc43)(c3ccccc3)O2)cc1 [Example D-532, 1-(((2S,4S)-4-((benzyloxy)methyl)-2-phenyl-1,3-dioxolan-2-yl)methyl)-1H-benzo[d][1,2,3]triazole]",blood sugar level,"iNOS transgenic mice [1]; 13 weeks, vs control group, FIG. 4",significantly low value as compared with the control group
same,amount of albumin excreted in urine,"iNOS transgenic mice [1]; 13 weeks, vs control group, FIG. 5",significant low value
same,increase in blood creatinine,"iNOS transgenic mice [1]; at dissection, FIG. 6",significantly improved
same,structure of foot processes in kidney tissue,iNOS transgenic mice [2],suppressed the structural change of the foot processes
same,expression of ChREBPβ gene in the kidney,ChREBP [3]; FIG. 10,decrease in expression
same,expression of TXNIP gene in the kidney,ChREBP [3]; FIG. 11,decrease in expression
same,expression of ChREBPβ gene in the kidney,ChREBP [4]; FIG. 22,Decrease in the expression
same,expression of TXNIP gene in the kidney,ChREBP [4]; FIG. 23,Decrease in the expression
same,effect on ACR relative to blood sugar level (gradient of the regression line),db/db mice,direct effect on the kidney

# From patent US11912688B2, “1, 3-dioxolane derivative” (TOHOKU UNIVERSITY, priority 2019, dated 2024)
